# Several values for one entry are separate records, joined by “and”; a condition that tells them apart may be missing. Equal entries are not always repeated. Where two headings read alike, the source gives them in different places.
# Tests used:
# [1] = Intrinsic clearance in hepatocytes, rat; format: in vitro ADME, male Wistar Han rats; details: 2.5 μM
# Description: (§1) The intrinsic clearance was assessed in cryopreserved Hepatocytes obtained by Human livers donors of mix gender pooled together, male balb-c mouse, male Wistar Han rats and male Göttingen minipig, by looking at the parent compound disappearance. The incubations were performed using a final concentration of viable cells of 1 million/ml (viability above 70%) and test item of 2.5 μM. Incubations were followed up to 2 h. Aliquotes were withdrawn at different time points and reaction quenched with acetonitrile. After centrifugation the supernatant was analyzed by HPLC/MS to quantify the remaining amount of parent in comparison with time 0. The clearance was calculated by fitting the log of the percentage remaining with Graphpad Prism ver.7.
# CYP2D6 = target: T1, CYP2D6 (Homo sapiens, UniProt P10635); assay: CYP2D6 inhibition in human liver microsomes; format: in vitro ADME; details: dextromethorphan, CRL data
# T1 construct: Human pooled liver microsomes of mixed gender (mainly Caucasian); from tissue; host or cells: pooled human liver microsomes
# Description: After 5 min at 37° C. incubations were started with NADPH and prolonged for 10 min. The test compound was tested up to 30 μM keeping the final concentration of organic solvent was below 0.5%. The final concentration of microsomes was 0.1 mg/ml to ensure linearity during the time of the incubation. The reaction was quenched by adding 3 volume of acetonitrile. After centrifugation the supernatant was analyzed by HPLC/MS/MS for the formation of des-methyldextromethorphane selectively produced by CYP2D6 and 1′hydroxymidazolam or 6p-hydroxytestosterone, selectively produced by CYP3A. IC50 was calculated with Graphpad Prism v.7 comparing the amount of metabolite produced in presence of the test compound with that produced in absence of test item.
# SF logD = format: physicochemical
# [2] = Intrinsic clearance in hepatocytes, mouse; format: in vitro ADME, male balb-c mouse; details: 2.5 μM
# Description: as §1
# [3] = system: IL-6 induced pSTAT3 in TF-1 cells; assay: In vitro cellular pSTAT3 assay, IL-6 stimulated TF-1 cells; format: cell-based; details: Homo sapiens
# Description: . The flasks were incubated overnight at 37° C., 5% CO2 then seeded in 96 well plates (TPP) at 150000 cells/well in 25 μL. Cells were treated with 5 IL/well of serially diluted compounds in DMSO (final DMSO concentration of 0.1%) and incubated for 30 min at 37° C. IL-6 (6 IL/well, 100 ng/ml as a final concentration in Opti-MEM, Thermofisher, PHC0066) was added to the cell plates and followed by a 30-min incubation at 37° C. Next, cells were lysed by adding 12 μl/well of 4× supplemented lysis buffer, incubated at 4° C. for 30 min under agitation. The samples were processed for the pSTAT3 detection as described by the manufacturer (MSD) with 25 μl of non-diluted cell lysates tested. Compounds were tested in simplicates over 10 three-step dilutions in order to determine their IC50 values.
# [4] = Protein binding analysis (RED), mouse plasma; format: in vitro ADME, male balb-c mice; details: 5 μM
# Description: (§2) The protein binding was assessed in plasma of Human, male balb-c mice, male Wistar Han rat, male Göttingen minipig by rapid equilibrium dialysis (RED) devices. After the plasma and buffer phosphate 50 mM pH7.4 were equilibrated at 37° C., the compound was added to plasma to reach a final concentration of 5 μM. An aliquot of plasma was withdrawn immediately. Equilibration under mild agitation was continued for 4 h. The plasma and buffer were sampled and samples were quenched with 4 volumes of acetonitrile and centrifuged. Supernatant was quantified in HPLC/MS/MS to calculate the recovery and the percentage of compound dissolved in the buffer (unbound) and bound to plasma proteins.
# 44 targets = format: binding
# Description: An in vitro pharmacology assay was conducted to assess the capability of the compounds to interact with different pharmacological targets when tested at 10 μM in different binding and enzyme/uptake assays. The included targets are indicative of potential effects in major organs and drug-drug interactions.
# Compound binding was calculated as a % inhibition of the binding of a radioactively labelled ligand specific for each target. […] […].
# [5] = In vivo pharmacokinetic analysis in rat (iv); set-up: species or system male Wistar Han rat; details: iv 1 mg/kg
# Description: (§3) One male Wistar Han rat. Compound was administered intravenously to fed animal at a target dose of 1 mg/kg, dose volume: 2 mL/kg, in DMSO/hydroxypropyl-beta-cyclodextrin 20% in phosphate buffer 60 mM pH 7 (5:95). Blood samples were collected at various time points. Blood samples were then assayed using a method based upon protein precipitation with acetonitrile followed by LC/MS/MS analysis. Non-compartmental methods were used for pharmacokinetic analysis of blood concentration versus time data
# IL6 = assay: hWB assay, IL6; format: cell-based, h
# [6] = Human skin ex vivo: flux through skin and dermis concentration (Franz cells); format: in vitro ADME; details: PG/H2O cream 1 mg/mL, human skin
# [7] = Intrinsic clearance in hepatocytes, minipig; format: in vitro ADME, male Göttingen minipig; details: 2.5 μM
# Description: as §1
# [8] = Thermodynamic sol PG_H2O pH 6 2/8; format: physicochemical; details: amorphous material
# [9] = Protein binding analysis (RED), rat plasma; format: in vitro ADME, male Wistar Han rat; details: 5 μM
# Description: as §2
# Kinetic aq sol = format: physicochemical
# [10] = Protein binding analysis (RED), minipig plasma; format: in vitro ADME; details: male, Göttingen, pH 7.4, read-out: minipig FU
# Description: as §2
# Chrom logD pH 7.4 = format: physicochemical
# [11] = Intrinsic clearance in hepatocytes, human; format: in vitro ADME; details: 2.5 μM
# Description: as §1
# [12] = Protein binding analysis (RED), human plasma; format: in vitro ADME; details: 5 μM
# Description: as §2
# [13] = Systemic level in PD/IL6 mouse topical dose response; format: in vivo, BALB/c ByJ Rj mice; details: topical 10 mM
# Description: Skin samples were harvested 15 min.
# [14] = In vivo pharmacokinetic analysis in minipig (iv); set-up: species or system male Göttingen minipigs; details: iv 1 mg/kg
# Description: as §3, with “Three” for “One”, “Göttingen minipigs.” for “Wistar Han rat.”, “animals” for “animal”, “volume 1” for “volume: 2”, “DMSO: hydroxypropyl-p-cyclodextrin” for “DMSO/hydroxypropyl-beta-cyclodextrin”, “data.” for “data”
# T1 sequence (P10635 whole entry): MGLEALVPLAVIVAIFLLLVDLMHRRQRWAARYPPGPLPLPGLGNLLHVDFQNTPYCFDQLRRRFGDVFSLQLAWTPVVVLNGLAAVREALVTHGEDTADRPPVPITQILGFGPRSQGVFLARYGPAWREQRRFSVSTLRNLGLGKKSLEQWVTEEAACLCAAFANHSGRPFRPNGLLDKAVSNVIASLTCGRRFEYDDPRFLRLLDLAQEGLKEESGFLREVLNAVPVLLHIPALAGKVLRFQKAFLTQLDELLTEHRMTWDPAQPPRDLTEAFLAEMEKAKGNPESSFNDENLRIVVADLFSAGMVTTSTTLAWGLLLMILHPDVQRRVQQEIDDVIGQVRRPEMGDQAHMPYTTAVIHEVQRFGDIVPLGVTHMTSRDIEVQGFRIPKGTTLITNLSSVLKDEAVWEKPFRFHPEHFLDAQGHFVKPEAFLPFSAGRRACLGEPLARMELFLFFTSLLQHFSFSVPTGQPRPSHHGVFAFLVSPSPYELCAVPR
smiles,measurement,setting,value
"N#CC[C@H](C1CCCC1)n1cc(-c2ncnc3[nH]ccc23)cn1 [Ruxolitinib, reference compound]",Intr. Clear. rheps,[1],300 microL/min/10 6 cells
same,IC50,CYP2D6,> 30 µM
same,logD,SF logD,2.3
same,Intr. Clear. mheps,[2],150 microL/min/10 6 cells
same,IC50,"[3]; TF-1, read-out: Cellular Assay: IC50 IL6",0.008 µM
same,IC50,"[3]; TF-1, read-out: Free IC50",0.2 µM
same,mFU,[4],7.7%
same,Safety panel (Cerep): 44 targets % inh @10 microM Nb of targets > 50% inh,44 targets,0/44
same,iv PK rat: ER,[5],51%
same,clearance,"[5]; male, Wistar Han, whole blood, read-out: iv PK rat: Cl",40 mL/min/kg
same,IC50,IL6,6.9 µM
same,measured flux 6-24 hr,[6],5.3 ng/cm^2/hr
same,Intr. Clear. minipig heps,[7],141 microL/min/10 6 cells
same,Thermodynamic sol PG_H2O pH 6 2/8,[8],1 mM and 0.3 mg/mL
same,rFU,[9],13%
same,Kinetic aq sol,Kinetic aq sol,232/ND (no cristalline microM
same,"fraction unbound at 4 h, 5 μM",[10],0.25
same,chromatographic logD,Chrom logD pH 7.4,1.5
same,Intr. Clear. h heps,[11],4.4 microL/min/10 6 cells
same,hFU,[12],4%
same,PD/IL6 mouse top DR 0.01-10 mM (PG/Acetone/Transcutol): Systemic level @10 mM - 2 hrs,[13],81 nM
same,iv PK minipig: ER,[14],68%
same,clearance,"[14]; male, Göttingen, whole blood, read-out: iv PK minipig: Cl",19 mL/min/kg
